# Patent US6737383B1, “Herbicidal oxadiazolidines” (priority 1999, dated 2004)
# What was measured:
# blackgrass [1] = assay: Test B pre/postemergence blackgrass; format: in vivo, Alopecurus myosuroides
# In short: (§1)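 Response is a visual 0-to-10 score relative to untreated plants, where 0 means no effect and 10 means complete control, taken twelve to sixteen days after application. Treatments went onto soil at planting and onto foliage of 1- to 4-leaf plants, using a surfactant-containing non-phytotoxic solvent.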
# bedstraw = assay: Test B pre/postemergence bedstraw; format: in vivo, Galium aparine
# In short: as §1
# winter wheat = assay: Test E winter wheat; format: in vivo, Triticum aestivum; details: Preemergence, Rate 250 g/ha
# winter barley = assay: Test E winter barley; format: in vivo, Hordeum vulgare; details: Preemergence, Rate 250 g/ha
# blackgrass [2] = assay: Test E blackgrass; format: in vivo, Alopecurus myosuroides; details: Preemergence, Rate 250 g/ha
# green foxtail = assay: Test E green foxtail; format: in vivo, Setaria viridis; details: Preemergence, Rate 250 g/ha
# Italian ryegrass = assay: Test E Italian ryegrass; format: in vivo, Lolium multiflorum; details: Preemergence, Rate 250 g/ha
# surinam grass = assay: Test B pre/postemergence surinam grass; format: in vivo, Brachiaria decumbens
# In short: as §1
# bamyardgrass = assay: Test B flood test barnyardgrass; format: in vivo, Echinochloa crus-galli; details: for Barnyardgrass plant response rating (0 to 10 scale, 0 is no effect, 10 is complete control): under heading Pre-emergence
# In short: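 Plants were grown to the 2-leaf stage before treatment with test chemical, then held in a greenhouse for twelve to sixteen days. Injury was visually rated against untreated controls on a 0–10 scale, where 0 is no effect and 10 is complete control.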
# wild oat = assay: Test E wild oat; format: in vivo, Avena fatua; details: Preemergence, Rate 250 g/ha
# [3] = Preemergence, Rate 62 g/ha, scale of 0 to 10 where 0 is no effect and 10 is complete control
# [4] = Preemergence, Rate 250 g/ha, scale of 0 to 10 where 0 is no effect and 10 is complete control
# [5] = Preemergence, Rate 500 g/ha, scale of 0 to 10 where 0 is no effect and 10 is complete control
# [6] = Rate 62 g/ha, Postemergence, scale 0 to 10, 0 no effect, 10 complete control
# [7] = Rate 125 g/ha, Postemergence, scale of 0 to 10 where 0 is no effect and 10 is complete control
# [8] = Rate 125 g/ha, Preemergence, scale of 0 to 10 where 0 is no effect and 10 is complete control
# [9] = Rate 250 g/ha, Postemergence, scale of 0 to 10 where 0 is no effect and 10 is complete control
# [10] = Rate 500 g/ha, Postemergence, scale 0 to 10, 0 no effect, 10 complete control
# [11] = Postemergence, Rate 250 g/ha, scale 0 to 10
# [12] = Postemergence, Rate 500 g/ha, scale of 0 to 10 where 0 is no effect and 10 is complete control
# [13] = Preemergence, Rate 62 g/ha, scale 0 to 10 (0 no effect, 10 complete control)
# [14] = Preemergence, Rate 125 g/ha, scale of 0 to 10 where 0 is no effect and 10 is complete control
# [15] = Preemergence, Rate 250 g/ha, scale 0 to 10, 0 is no effect, 10 is complete control
# [16] = Preemergence, Rate 500 g/ha, scale 0 to 10, 0 is no effect, 10 is complete control
# [17] = Rate 125 g/ha, Postemergence, scale 0 to 10, 0 is no effect, 10 is complete control
# [18] = Postemergence, Rate 62 g/ha, scale 0 to 10, 0 is no effect, 10 is complete control
# [19] = Postemergence, Rate 125 g/ha, scale of 0 to 10 where 0 is no effect and 10 is complete control
# [20] = Postemergence, Rate 250 g/ha, scale of 0 to 10, 0 is no effect, 10 is complete control
# [21] = Preemergence, Rate 250 g/ha, scale 0 to 10 (0 no effect, 10 complete control)
# [22] = Rate 125 g/ha, flood test species, visual evaluation after twelve to sixteen days
# [23] = Rate 250 g/ha, Pre-emergence (flood test species), scale 0 to 10, 0 is no effect, 10 is complete control
# [24] = Rate 500 g/ha, Pre-emergence section of Table B, 0 to 10 scale (0 no effect, 10 complete control)
# [25] = Rate 1000 g/ha, Preemergence, scale 0 to 10 (0 no effect, 10 complete control)
# [26] = Postemergence, Rate 1000 g/ha, scale 0 to 10 (0 no effect, 10 complete control)
structure (smiles),measurement,setting,value
CCC=CCn1c(=O)on(C(=O)N(c2ccc(F)cc2)C(C)C)c1=O [Compound 286],Blackgrass plant response rating,blackgrass [1]; [3],0
same,Blackgrass plant response rating,blackgrass [1]; [4],7
same,"Plant response rating, Blackgrass",blackgrass [1]; [5],7
same,Blackgrass plant response rating,blackgrass [1]; [6],0
same,Blackgrass plant response rating,blackgrass [1]; [7],2
same,Blackgrass plant response rating,blackgrass [1]; [8],0
same,"Plant response rating, Blackgrass",blackgrass [1]; [9],5
same,Blackgrass plant response rating,blackgrass [1]; [10],8
same,Bedstraw plant response rating,bedstraw; [3],0
same,Bedstraw plant response rating,bedstraw; [4],0
same,"Plant response rating, Bedstraw",bedstraw; [5],0
same,Bedstraw plant response rating,bedstraw; [6],2
same,Bedstraw plant response rating,bedstraw; [7],2
same,Bedstraw plant response rating,bedstraw; [8],0
same,"Plant response rating, Bedstraw",bedstraw; [9],5
same,Bedstraw plant response rating,bedstraw; [10],6
same,Wheat (winter) plant response rating (0 to 100 scale),winter wheat,40
same,Barley (winter) plant response rating (0 to 100 scale),winter barley,5
same,Blackgrass plant response rating (0 to 100 scale),blackgrass [2],10
same,Green foxtail plant response rating (0 to 100 scale),green foxtail,55
same,I. Ryegrass plant response rating (0 to 100 scale),Italian ryegrass,40
same,B. signalgrass plant response rating,surinam grass; [3],0
same,B. signalgrass plant response rating,surinam grass; [4],8
same,"Plant response rating, B. signalgrass",surinam grass; [5],8
same,B. signalgrass plant response rating,surinam grass; [6],0
same,B. signalgrass plant response rating,surinam grass; [7],0
same,B. signalgrass plant response rating,surinam grass; [8],3
same,"Plant response rating, B. signalgrass",surinam grass; [9],0
same,B. signalgrass plant response rating,surinam grass; [10],2
same,Barnyardgrass plant response rating,"bamyardgrass; Rate 62 g/ha, headed Pre-emergence (flood test species), scale 0 to 10 (0 no effect, 10 complete control)",0
same,Barnyardgrass plant response rating,"bamyardgrass; Rate 125 g/ha, Pre-emergence, flood test species, scale 0 to 10 where 0 is no effect and 10 is complete control",0
same,Barnyardgrass plant response rating,"bamyardgrass; Rate 250 g/ha, Pre-emergence, flood-test species, scale 0 to 10, 0 is no effect, 10 is complete control",0
same,Barnyardgrass plant response rating,"bamyardgrass; Rate 500 g/ha, Pre-emergence, flood test species, scale 0 to 10 (0 no effect, 10 complete control)",4
same,Wild oat plant response rating (0 to 100 scale),wild oat,10
CC(C)N(C(=O)n1oc(=O)n(CCC#N)c1=O)c1ccccc1 [Compound 436],Blackgrass plant response rating,blackgrass [1]; [11],0
same,Blackgrass plant response rating,blackgrass [1]; [12],9
same,"Plant response rating, Blackgrass",blackgrass [1]; [13],0
same,"Plant response rating, Blackgrass",blackgrass [1]; [14],0
same,Blackgrass plant response rating,blackgrass [1]; [15],0
same,Blackgrass plant response rating,blackgrass [1]; [16],9
same,Blackgrass plant response rating,blackgrass [1]; [6],0
same,Blackgrass plant response rating,blackgrass [1]; [17],0
same,Bedstraw plant response rating,bedstraw; [11],0
same,Bedstraw plant response rating,bedstraw; [6],0
same,Bedstraw plant response rating,bedstraw; [17],0
same,B. signalgrass plant response rating,"surinam grass; Postemergence, Rate 250 g/ha, scale 0 to 10, 0 no effect, 10 complete control",0
same,B. signalgrass plant response rating,surinam grass; [12],8
same,"Plant response rating, B. signalgrass",surinam grass; [13],0
same,"Plant response rating, B. signalgrass",surinam grass; [14],0
same,B. signalgrass plant response rating,surinam grass; [15],0
same,B. signalgrass plant response rating,surinam grass; [16],10
same,B. signalgrass plant response rating,surinam grass; [6],0
same,B. signalgrass plant response rating,surinam grass; [17],0
same,Barnyardgrass plant response rating,"bamyardgrass; Postemergence block (flood test species), Rate 250 g/ha, scale 0 to 10",0
same,Barnyardgrass plant response rating,"bamyardgrass; Postemergence section (flood test species), Rate 500 g/ha, scale of 0 to 10 where 0 is no effect and 10 is complete control",0
same,Barnyardgrass plant response rating,"bamyardgrass; Rate 62 g/ha, Postemergence (flood test), scale 0 to 10, 0 no effect, 10 complete control",0
same,Barnyardgrass plant response rating,"bamyardgrass; Rate 125 g/ha, Postemergence section (flood test species), scale 0 to 10, 0 is no effect, 10 is complete control",0
CC(C)N(C(=O)n1oc(=O)n(Cc2nnc(Cl)s2)c1=O)c1ccc(F)cc1F [Compound 645],"Plant response rating, Blackgrass",blackgrass [1]; [18],0
same,Blackgrass plant response rating,blackgrass [1]; [19],0
same,Blackgrass plant response rating,blackgrass [1]; [20],0
same,"Plant response rating, Blackgrass",blackgrass [1]; [12],0
same,Blackgrass plant response rating,blackgrass [1]; [3],0
same,Blackgrass plant response rating,blackgrass [1]; [14],0
same,"Plant response rating, Blackgrass",blackgrass [1]; [21],0
same,"Plant response rating, Blackgrass",blackgrass [1]; [5],0
same,"Plant response rating, Bedstraw",bedstraw; [18],0
same,Bedstraw plant response rating,bedstraw; [20],0
same,"Plant response rating, B. signalgrass",surinam grass; [18],0
same,"Plant response rating, B. signalgrass",surinam grass; [19],0
same,B. signalgrass plant response rating,surinam grass; [20],0
same,"Plant response rating, B. signalgrass",surinam grass; [12],0
same,B. signalgrass plant response rating,surinam grass; [3],0
same,B. signalgrass plant response rating,surinam grass; [14],0
same,"Plant response rating, B. signalgrass",surinam grass; [21],0
same,"Plant response rating, B. signalgrass",surinam grass; [5],0
same,"Plant response rating, Barnyardgrass (0 to 10 scale, 0 is no effect, 10 is complete control)","bamyardgrass; Rate 62 g/ha, flood test species, Pre-emergence, visual evaluation after twelve to sixteen days",0
same,"Barnyardgrass plant response rating (0 to 10 scale, 0 is no effect, 10 is complete control)",bamyardgrass; [22],0
same,Barnyardgrass plant response rating,bamyardgrass; [23],0
same,Barnyardgrass plant response rating,bamyardgrass; [24],0
CCOP(=O)(Cn1c(=O)on(C(=O)N(c2ccc(F)cc2)C(C)C)c1=O)OCC [Compound 587],"Plant response rating, Blackgrass",blackgrass [1]; [19],3
same,Blackgrass plant response rating,blackgrass [1]; [20],3
same,"Plant response rating, Blackgrass",blackgrass [1]; [12],6
same,Blackgrass plant response rating,blackgrass [1]; [14],3
same,Blackgrass plant response rating (0 to 10 scale),"blackgrass [1]; Preemergence, Rate 250 g/ha",6
same,Blackgrass plant response rating,blackgrass [1]; [5],8
same,"Plant response rating, Blackgrass",blackgrass [1]; [25],10
same,"Plant response rating, Bedstraw",bedstraw; [12],3
same,Bedstraw plant response rating,bedstraw; [26],7
same,Bedstraw plant response rating,bedstraw; [14],0
same,Bedstraw plant response rating,bedstraw; [5],2
same,"Plant response rating, Bedstraw",bedstraw; [25],3
same,"Plant response rating, B. signalgrass",surinam grass; [19],0
same,B. signalgrass plant response rating,surinam grass; [20],0
same,"Plant response rating, B. signalgrass",surinam grass; [12],0
same,B. signalgrass plant response rating,surinam grass; [26],5
same,B. signalgrass plant response rating,surinam grass; [14],0
same,"B. signalgrass plant response rating (0 to 10 scale, 0 is no effect, 10 is complete control)","surinam grass; Preemergence, Rate 250 g/ha",5
same,B. signalgrass plant response rating,surinam grass; [5],7
same,"Plant response rating, B. signalgrass",surinam grass; [25],10
same,Barnyardgrass plant response rating,"bamyardgrass; Pre-emergence, Rate 1000 g/ha, scale 0 to 10 (0 no effect, 10 complete control)",0
same,"Barnyardgrass plant response rating (0 to 10 scale, 0 is no effect, 10 is complete control)",bamyardgrass; [22],0
same,Barnyardgrass plant response rating,bamyardgrass; [23],0
same,Barnyardgrass plant response rating,bamyardgrass; [24],0
